# Laboratory results from PubChem BioAssay (NCI).
#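 Where inhibition never reached the appropriate level, the endpoint shown equals the highest concentration tested. Otherwise, values were interpolated linearly from a five-concentration, 48-hour dose response in 96-well plates. GI50 marks 50% less growth. The concentration for full growth arrest is given as TGI.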
# Key:
# Assay in all cases: NCI-60 cell line screen, 48 h
# [1] = tested on: A498 renal
# [2] = tested on: HCC-2998 colon
# [3] = tested on: KM20L2 colon
# [4] = tested on: OVCAR-5 ovarian
# [5] = tested on: HOP-92 NSCLC
# [6] = tested on: SK-MEL-5 melanoma
# [7] = tested on: SNB-75 CNS
# [8] = tested on: UACC-62 melanoma
# [9] = tested on: CAKI-1 renal
# [10] = tested on: HCT-15 colon
# [11] = tested on: MCF7 breast
Compound,TGI [1],TGI [2],TGI [3],TGI [4],TGI [5],TGI [6],TGI [7],TGI [8],TGI [9],TGI [10],TGI [11],GI50 [1],GI50 [2],GI50 [10],GI50 [11],GI50 [6],GI50 [7],GI50 [4],GI50 [5]
CC(C)(C)[Si](OC1CC(n2cnc3c(N)ncnc32)OC1CO)(c1ccccc1)c1ccccc1 (stereo not given),32.9 µM,> 100 µM,29.5 µM,34.8 µM,47.3 µM,–,–,–,–,–,–,–,–,–,–,–,–,–,–
O=C1C(Cl)N(c2ccc(Cl)cc2)C1c1c[nH]c2ccccc12 (stereo not given),–,–,38.3 µM,–,45.3 µM,31 µM,> 100 µM,68.8 µM,–,–,–,–,–,–,–,–,–,–,–
COc1ccc(N2C(=O)/C(=C(\C)c3cc4ccccc4oc3=O)N=C2c2cc([N+](=O)[O-])ccc2Cl)cc1,82.6 µM,> 100 µM,> 100 µM,> 100 µM,–,> 100 µM,> 100 µM,> 100 µM,> 100 µM,–,–,–,–,–,–,–,–,–,–
O=C(O)c1ccc(Nc2c3ccccc3nc3ccccc23)cc1,> 100 µM,> 100 µM,> 100 µM,> 100 µM,> 100 µM,> 100 µM,> 100 µM,> 100 µM,> 100 µM,> 100 µM,> 100 µM,–,–,–,–,–,–,–,–
CN(C)CCCNC(=O)c1cc2[nH]c3c(cnc4ccc([N+](=O)[O-])cc43)c(=O)c2n1C,> 100 µM,29 µM,–,31.6 µM,32.1 µM,31.1 µM,28.9 µM,–,–,31.8 µM,28.9 µM,55.1 µM,15.6 µM,15.2 µM,15.5 µM,17.1 µM,15.5 µM,17.8 µM,13.5 µM
Cc1cc(C)n(C(=C(C(Cl)=C(Cl)Cl)[N+](=O)[O-])n2nc(C)cc2C)n1,8.59 µM,12.5 µM,–,22.8 µM,6.78 µM,3.88 µM,18.1 µM,14.9 µM,8.38 µM,11.4 µM,8.2 µM,–,–,–,–,–,–,–,–
